Converted amounts (≈) assume the structure as drawn.
Tested on: Plasmodium falciparum
Assay: In vitro inhibitory activity against Chloroquine-sensitive Plasmodium falciparum NF54 as [3H]hypoxanthine incorporation
Assay type: functional, organism-based
[1] = Plasmodium falciparum, read-out: IC50

SMILES: CO[C@H]1O[C@]2(C)OO[C@]13[C@H](CCO)CCC[C@@H]3C[C@@H]2C
- IC50 [1]: 0.36 µg/mL (≈ 1.26 µM)

SMILES: CO[C@H]1O[C@]2(C)OO[C@]13[C@H](CCO)CCC[C@@H]3C[C@H]2C
- IC50 [1]: 0.0022 µg/mL (≈ 0.00768 µM)

SMILES: CO[C@H]1O[C@]2(C)OO[C@]13CCCC[C@@H]3C[C@H]2Cc1ccccc1
- IC50 [1]: 0.098 µg/mL (≈ 0.308 µM)

SMILES: CO[C@H]1O[C@@]2(C)CC[C@H]3CCC[C@@H](CCO)[C@]31OO2
- IC50: 0.034 µg/mL (≈ 0.125 µM)
- IC50 [1]: 0.034 µg/mL (≈ 0.125 µM)

SMILES: CO[C@H]1O[C@]2(C)OO[C@]13[C@H](CCO)CCC[C@@H]3C[C@H]2C[Si](C)(C)C
- IC50 [1]: 0.086 µg/mL (≈ 0.24 µM)

SMILES: CO[C@H]1O[C@]2(C)OO[C@]13CCCC[C@@H]3C[C@H]2c1ccccc1
- IC50 [1]: 0.61 µg/mL (≈ 2 µM)

SMILES: CO[C@H]1O[C@@]2(C)CC[C@H]3CCCC[C@]31OO2
- IC50 [1]: 0.22 µg/mL (≈ 0.964 µM)

SMILES: CO[C@H]1O[C@]2(C)OO[C@]13[C@H](CCO)CCC[C@@H]3C[C@@H]2C[Si](C)(C)C
- IC50 [1]: > 1 µg/mL

SMILES: CO[C@H]1O[C@]2(C)OO[C@]13[C@H](CCO)CCC[C@@H]3C[C@@H]2Cc1ccccc1
- IC50 [1]: 0.6 µg/mL (≈ 1.66 µM)

SMILES: CO[C@H]1O[C@]2(C)OO[C@]13[C@H](CCO)CCC[C@@H]3C[C@H]2Cc1ccccc1
- IC50 [1]: 0.003 µg/mL (≈ 0.00828 µM)

SMILES: C[C@@H]1CC[C@H]2[C@@H](C)C(=O)O[C@@H]3O[C@@]4(C)CC[C@@H]1[C@]32OO4 [ARTEMISININ]
- IC50 [1]: 0.003 µg/mL (≈ 0.0106 µM)

Reference: ChEMBL document CHEMBL1128408, “Further evidence supporting the importance of and the restrictions on a carbon-centered radical for high antimalarial activity of 1,2,4-trioxanes like artemisinin” (J Med Chem, 1995)
